Data published in PubChem BioAssay AID2511 (Broad Institute, 2010).
pEC50: −log10 of the molar value.

system: human washed platelets, SFLLRN-induced P-selectin, flow cytometry; assay: inhibitors of SFLLRN-triggered platelet P-selectin exposure, dose response, cell-based, fluorescence, flow cytometry, human platelets (AID 2511); conditions: retest run 2

pEC50 | Structure (SMILES)
> 5.52 | CCC(=O)Nc1cccc(NC(=O)c2ccccc2Br)c1
> 5.52 | Cc1ccc(-n2c(N)c(C#N)c(-c3ccccc3)c(C#N)c2=O)cc1
> 5.00 | CCCCC(=O)Nc1cccc(NC(=O)c2ccccc2Br)c1
> 6.00 | CCCC(=O)Nc1cccc(NC(=O)c2ccccc2Br)c1
> 6.00 | O=C(Nc1cccc(NC(=O)c2ccccc2Cl)c1)c1ccco1
